Where “and” joins values, the source holds several entries; their conditions need not be identical. Equal values may be shown once. Read-outs that look alike come from different tables or passages of the source. Bridge positions count the residues as written; N and C are the ends. Square brackets hold non-standard residues; d marks the D form. Ends that are not written are not given here. Peptide text beside a SMILES is read from it. * marks the point of attachment. ξ: configuration not given here. Abu(4-SO3H) = N[C@@H](CCS(=O)(=O)O)C(=O)O; PhLac = O=C(O)[C@@H](O)Cc1ccccc1; Aad = N[C@@H](CCCC(=O)O)C(=O)O; ξPhLac = O=C(O)C(O)Cc1ccccc1; Carboxymethyl = O=C(O)C*; CH2CH2COOH = O=C(O)CC*
Target: Glucagon Receptor (Homo sapiens, UniProt P47871)
Experiment: cAMP inhibition: antagonism of glucagon-induced cAMP at glucagon receptor
Type: cell-based
Set-up: expressed in transfected cells; host or cells: HEK293
[1] = Glucagon antagonism IC50 (nM, inhibit 0.2-0.8 nM glucagon), Table 18
[2] = Glucagon antagonism IC50 (nM, inhibit 0.2-0.8 nM glucagon), Table 16, combined results of three assays

Glucagon Receptor, sequence (P47871 26-477): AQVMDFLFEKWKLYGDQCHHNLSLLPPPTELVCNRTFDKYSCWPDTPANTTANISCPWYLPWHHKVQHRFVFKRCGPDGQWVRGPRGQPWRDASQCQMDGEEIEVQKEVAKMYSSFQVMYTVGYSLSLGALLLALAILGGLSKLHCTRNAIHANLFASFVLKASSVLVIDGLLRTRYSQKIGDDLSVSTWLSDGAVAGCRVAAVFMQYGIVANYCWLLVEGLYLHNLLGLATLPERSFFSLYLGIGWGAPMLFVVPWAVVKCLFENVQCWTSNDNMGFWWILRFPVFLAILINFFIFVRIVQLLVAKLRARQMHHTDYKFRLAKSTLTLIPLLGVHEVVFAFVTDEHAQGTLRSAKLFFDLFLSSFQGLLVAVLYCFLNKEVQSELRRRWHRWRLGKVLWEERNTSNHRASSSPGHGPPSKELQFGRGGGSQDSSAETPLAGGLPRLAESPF

Compound: CC[C@H](C)[C@H](NC(=O)[C@H](Cc1ccccc1)NC(=O)[C@H](CCC(=O)O)NC(=O)[C@@H]1CCCCNC(=O)CC[C@H](NC(=O)[C@H](CC(=O)O)NC(=O)[C@H](CC(C)C)NC(=O)[C@H](Cc2ccc(O)cc2)NC(=O)[C@H](CCCCN)NC(=O)[C@H](CO)NC(=O)[C@H](Cc2ccc(O)cc2)NC(=O)[C@H](CCC(=O)O)NC(=O)[C@H](CO)NC(=O)[C@@H](NC(=O)[C@H](Cc2ccccc2)NC(=O)[C@@H](NC(=O)CNC(=O)[C@H](CCC(=O)O)NC(=O)[C@H](C)N)[C@@H](C)O)[C@@H](C)O)C(=O)N[C@@H](CCC(N)=O)C(=O)N[C@@H](C)C(=O)N[C@@H](C)C(=O)N1)C(=O)N[C@@H](C)C(=O)N[C@@H](Cc1c[nH]c2ccccc12)C(=O)N[C@@H](CC(C)C)C(=O)N[C@@H](CCSC)C(=O)N[C@@H](CC(=O)O)C(=O)N[C@H](C(N)=O)[C@@H](C)O [[A2E3, E9, E16K20(Lactam), GLP(23-32)]G(2-29)] (H-AEGTFTSEYSKYLDEQAAKEFIAWLMDT-NH2; lactam 15-19; N-terminus assumed)
- IC50 [1]: 423 nM
- character of antagonism (partial antagonist, wrapped cell) (Table 18): partial

Compound: CSCC[C@H](NC(=O)[C@H](CC(C)C)NC(=O)[C@H](Cc1c[nH]c2ccccc12)NC(=O)[C@H](CCC(N)=O)NC(=O)[C@@H](NC(=O)[C@H](Cc1ccccc1)NC(=O)[C@H](CC(=O)O)NC(=O)[C@H](CCC(N)=O)NC(=O)[C@H](C)NC(=O)[C@H](CCCNC(=N)N)NC(=O)[C@H](CCCNC(=N)N)NC(=O)[C@H](CO)NC(=O)[C@H](CC(=O)O)NC(=O)[C@H](CC(C)C)NC(=O)[C@H](Cc1ccc(O)cc1)NC(=O)[C@H](CCCCN)NC(=O)[C@H](CO)NC(=O)[C@H](Cc1ccc(O)cc1)NC(=O)[C@H](CCS(=O)(=O)O)NC(=O)[C@H](CO)NC(=O)[C@@H](NC(=O)[C@@H](N)Cc1ccccc1)[C@@H](C)O)C(C)C)C(=O)N[C@@H](CC(N)=O)C(=O)N[C@H](C(N)=O)[C@@H](C)O [[hCys^9(SO3H)]Glucagon(aa6-29)-NH2] (H-FTS[Abu(4-SO3H)]YSKYLDSRRAQDFVQWLMNT-NH2; N-terminus assumed)
- cAMP pA2 (Table 9): 7.16 ± 0.51

Compound: FTSKYSKYLDSRRAQDFVQWLMNT-NH2 [[Lys^9]Glucagon(aa6-29)-NH2]
- cAMP pA2: 6.58 ± 0.60

Compound: CSCC[C@H](NC(=O)[C@H](CC(C)C)NC(=O)[C@H](Cc1c[nH]c2ccccc12)NC(=O)[C@H](CCC(N)=O)NC(=O)[C@@H](NC(=O)[C@H](Cc1ccccc1)NC(=O)[C@H](CC(=O)O)NC(=O)[C@H](CCC(N)=O)NC(=O)[C@H](C)NC(=O)[C@H](CCCNC(=N)N)NC(=O)[C@H](CCCNC(=N)N)NC(=O)[C@H](CO)NC(=O)[C@H](CC(=O)O)NC(=O)[C@H](CC(C)C)NC(=O)[C@H](Cc1ccc(O)cc1)NC(=O)[C@H](CCCCN)NC(=O)[C@H](CO)NC(=O)[C@H](Cc1ccc(O)cc1)NC(=O)[C@H](CCC(=O)O)NC(=O)[C@H](CO)NC(=O)[C@@H](NC(=O)[C@H](Cc1ccccc1)OC(=O)[C@@H](NC(=O)CNC(=O)[C@H](CCC(N)=O)NC(=O)[C@H](CO)NC(=O)[C@@H](N)Cc1c[nH]cn1)[C@@H](C)O)[C@@H](C)O)C(C)C)C(=O)N[C@@H](CC(N)=O)C(=O)N[C@H](C(N)=O)[C@@H](C)O [[Thr5-O-PLA6,E9]Glucagon(1-29)] (H-HSQGT[PhLac]TSEYSKYLDSRRAQDFVQWLMNT-NH2; N-terminus assumed)
- IC50 (Glucagon antagonism IC50(nM, inhibit 0.5nM G), Table 25): 14.2 ± 7.89 nM

Compound: [PLA6, K12E16(Lactam), D28,CEX-C40(20 kDa)]G(6-40) ([PhLac]TSDYSKYLDERRAQDFVQWLMDTGPSSGAPPPSC(PEG 20 kDa); lactam 7-11)
- Glucagon antagonism IC50(nM) (inhibit 0.2-0.8 nM glucagon): Not antagonist (n = 1)

Compound: CSCC[C@H](NC(=O)[C@H](CC(C)C)NC(=O)[C@H](Cc1c[nH]c2ccccc12)NC(=O)[C@H](CCC(N)=O)NC(=O)[C@@H](NC(=O)[C@H](Cc1ccccc1)NC(=O)[C@H](CC(=O)O)NC(=O)[C@H](CCC(N)=O)NC(=O)[C@H](C)NC(=O)[C@H](CCCNC(=N)N)NC(=O)[C@H](CCCNC(=N)N)NC(=O)[C@H](CO)NC(=O)[C@H](CC(=O)O)NC(=O)[C@H](CC(C)C)NC(=O)[C@H](Cc1ccc(O)cc1)NC(=O)[C@H](CCCCN)NC(=O)[C@H](CO)NC(=O)[C@H](Cc1ccc(O)cc1)NC(=O)[C@H](CSCC(=O)O)NC(=O)[C@H](CO)NC(=O)[C@@H](NC(=O)[C@@H](N)Cc1ccccc1)[C@@H](C)O)C(C)C)C(=O)N[C@@H](CC(N)=O)C(=O)N[C@H](C(N)=O)[C@@H](C)O [[(CSA-1)^9]Glucagon(aa6-29)-NH2, [C^9(SCH2COOH)]Glucagon(aa6-29)-NH2] (H-FTSC(Carboxymethyl)YSKYLDSRRAQDFVQWLMNT-NH2; N-terminus assumed)
- cAMP pA2 (Table 9): 6.68 ± 1.05

Compound: [PLA^6, C^8(1.2kDaPEG), E^9]Glucagon(aa6-29)-NH2 ([PhLac]TC(PEG 1.2 kDa)EYSKYLDSRRAQDFVQWLMNT-NH2)
- IC50 (nM) (cAMP, inhibit 0.2 mM Glucagon) (Table 12): no antagonism

Compound: [PLA6, E9,E16K20(Lactam), C24(20 kDa)]G(6-29) ([PhLac]TSEYSKYLDERRAKDFVC(PEG 20 kDa)WLMNT; lactam 11-15)
- Glucagon antagonism IC50(nM) (inhibit 0.2-0.8 nM glucagon): Not detect

Compound: CC[C@H](C)[C@H](NC(=O)[C@H](Cc1ccccc1)NC(=O)[C@H](CCC(=O)O)NC(=O)[C@@H]1CCCCNC(=O)CC[C@H](NC(=O)[C@H](CC(=O)O)NC(=O)[C@H](CC(C)C)NC(=O)[C@H](Cc2ccc(O)cc2)NC(=O)[C@H](CCCCN)NC(=O)[C@H](CO)NC(=O)[C@H](Cc2ccc(O)cc2)NC(=O)[C@H](CC(=O)O)NC(=O)[C@H](CO)NC(=O)[C@@H](NC(=O)C(O)Cc2ccccc2)[C@@H](C)O)C(=O)N[C@@H](CCC(N)=O)C(=O)N[C@@H](C)C(=O)N[C@@H](C)C(=O)N1)C(=O)N[C@@H](C)C(=O)N[C@@H](Cc1c[nH]c2ccccc12)C(=O)N[C@@H](CC(C)C)C(=O)N[C@@H](CCSC)C(=O)N[C@@H](CC(=O)O)C(=O)N[C@H](C(N)=O)[C@@H](C)O (stereo partly drawn) [[PLA6, E16K20(lactam), GLP(23-32)]G(6-29)] (H-[ξPhLac]TSDYSKYLDEQAAKEFIAWLMDT-NH2; lactam 11-15)
- IC50 [1]: 11.7 nM and 73.5 nM

Compound: CSCC[C@H](NC(=O)[C@H](CC(C)C)NC(=O)[C@H](Cc1c[nH]c2ccccc12)NC(=O)[C@H](CCC(N)=O)NC(=O)[C@@H](NC(=O)[C@H](Cc1ccccc1)NC(=O)[C@H](CC(=O)O)NC(=O)[C@H](CCC(N)=O)NC(=O)[C@H](C)NC(=O)[C@H](CCCNC(=N)N)NC(=O)[C@H](CCCNC(=N)N)NC(=O)[C@H](CO)NC(=O)[C@H](CC(=O)O)NC(=O)[C@H](CC(C)C)NC(=O)[C@H](Cc1ccc(O)cc1)NC(=O)[C@H](CCCCN)NC(=O)[C@H](CO)NC(=O)[C@H](Cc1ccc(O)cc1)NC(=O)[C@H](CCCC(=O)O)NC(=O)[C@H](CO)NC(=O)[C@@H](NC(=O)[C@@H](N)Cc1ccccc1)[C@@H](C)O)C(C)C)C(=O)N[C@@H](CC(N)=O)C(=O)N[C@H](C(N)=O)[C@@H](C)O [[hGlu^9]Glucagon(aa6-29)-NH2] (H-FTS[Aad]YSKYLDSRRAQDFVQWLMNT-NH2; N-terminus assumed)
- cAMP pA2 (Table 9): 6.27 ± 0.11

Compound: CSCC[C@H](NC(=O)[C@H](CC(C)C)NC(=O)[C@H](Cc1c[nH]c2ccccc12)NC(=O)[C@H](CCC(N)=O)NC(=O)[C@@H](NC(=O)[C@H](Cc1ccccc1)NC(=O)[C@H](CC(=O)O)NC(=O)[C@H](CCC(N)=O)NC(=O)[C@H](C)NC(=O)[C@H](CCCNC(=N)N)NC(=O)[C@H](CCCNC(=N)N)NC(=O)[C@H](CO)NC(=O)[C@H](CC(=O)O)NC(=O)[C@H](CC(C)C)NC(=O)[C@H](Cc1ccc(O)cc1)NC(=O)[C@H](CCCCN)NC(=O)[C@H](CO)NC(=O)[C@H](Cc1ccc(O)cc1)NC(=O)[C@H](CSCCC(=O)O)NC(=O)[C@H](CO)NC(=O)[C@@H](NC(=O)[C@@H](N)Cc1ccccc1)[C@@H](C)O)C(C)C)C(=O)N[C@@H](CC(N)=O)C(=O)N[C@H](C(N)=O)[C@@H](C)O [[(CSA-2)^9]Glucagon(aa6-29)-NH2, [C^9(SCH2CH2COOH)]Glucagon(aa6-29)-NH2] (H-FTSC(CH2CH2COOH)YSKYLDSRRAQDFVQWLMNT-NH2; N-terminus assumed)
- cAMP pA2 (Table 9): 6.64 ± 0.29

Compound: CC(C)C[C@H](NC(=O)[C@H](Cc1ccc(O)cc1)NC(=O)[C@H](CCCCN)NC(=O)[C@H](CO)NC(=O)[C@H](Cc1ccc(O)cc1)NC(=O)[C@H](CCS(=O)(=O)O)NC(=O)[C@H](CO)NC(=O)[C@@H](NC(=O)[C@H](Cc1ccccc1)NC(=O)[C@@H](NC(=O)[C@H](CC(C)C)NC(=O)[C@H](CCC(N)=O)NC(=O)[C@@H](N)CO)[C@@H](C)O)[C@@H](C)O)C(=O)N[C@@H](CC(=O)O)C(=O)N[C@@H](CO)C(=O)N[C@@H](CCCNC(=N)N)C(=O)N[C@@H](CCCNC(=N)N)C(=O)N[C@@H](C)C(=O)N[C@@H](CCC(N)=O)C(=O)N[C@@H](CC(=O)O)C(=O)N[C@@H](Cc1ccccc1)C(=O)N[C@H](C(=O)N[C@@H](CCC(N)=O)C(=O)N[C@@H](Cc1ccccc1)C(=O)N[C@@H](CC(C)C)C(=O)N[C@@H](CC(C)C)C(=O)N[C@@H](CC(N)=O)C(=O)N[C@H](C(N)=O)[C@@H](C)O)C(C)C [[desHis^1, Leu^4, hCys^9(SO3−), Phe^25, Leu^27] Glucagon-NH2] (H-SQLTFTS[Abu(4-SO3H)]YSKYLDSRRAQDFVQFLLNT-NH2; N-terminus assumed)
- glucagon antagonism, in words: some level of antagonism

Compound: FTSEYSKYLDERRAQDFVQWLMNTGPSSGAPPPS-NH2 [E9, K12, E16]
- IC50 [2]: 762 ± 127 nM

Compound: CSCC[C@H](NC(=O)[C@H](CC(C)C)NC(=O)[C@H](Cc1c[nH]c2ccccc12)NC(=O)[C@H](CCC(N)=O)NC(=O)[C@@H](NC(=O)[C@H](Cc1ccccc1)NC(=O)[C@H](CC(=O)O)NC(=O)[C@@H]1CCCCNC(=O)CC[C@H](NC(=O)[C@H](CC(=O)O)NC(=O)[C@H](CC(C)C)NC(=O)[C@H](Cc2ccc(O)cc2)NC(=O)[C@H](CCCCN)NC(=O)[C@H](CO)NC(=O)[C@H](Cc2ccc(O)cc2)NC(=O)[C@H](CCC(=O)O)NC(=O)[C@H](CO)NC(=O)[C@@H](NC(=O)[C@@H](O)Cc2ccccc2)[C@@H](C)O)C(=O)N[C@@H](CCCNC(=N)N)C(=O)N[C@@H](CCCNC(=N)N)C(=O)N[C@@H](C)C(=O)N1)C(C)C)C(=O)N[C@@H](CC(N)=O)C(=O)N[C@H](C(=O)NCC(=O)N1CCC[C@H]1C(=O)N[C@@H](CO)C(=O)N[C@@H](CO)C(=O)NCC(=O)N[C@@H](C)C(=O)N1CCC[C@H]1C(=O)N1CCC[C@H]1C(=O)N1CCC[C@H]1C(=O)N[C@@H](CO)C(N)=O)[C@@H](C)O [[PLA6, E9, E16K20(Lactam)]]
- IC50 [2]: 20.5 ± 2.5 nM
